Laboratory results from US7332476B2, “Pyridyl substituted ketolide antibiotics” (Novartis AG, priority 2003, dated 2008).
Values after ≈ are worked out from the molar mass of the structure shown.

Columns and labels:
Assay in all cases: MIC, broth microdilution (NCCLS)
[1] = tested on: Streptococcus pneumoniae Stpn_Mef 5654; assay type: cell-based; details: Table 7, Strain ID K (Table 6): S. pneumoniae Stpn_Mef 5654; in µg/mL (unit assumed)
Description: (§1) Strains. The bacterial isolates listed in Table 4 were cultivated from −70° C. frozen stocks by two consecutive overnight passages (P1, P2) at 35° C. on 5% blood agar (Remel, Lenexa, Kans.). Chocolate agar (Remel) is used for Haemophilus influenzae. H. influenzae and Streptococcus pneumoniae are incubated in 5-10% CO2
(§2) Drug Stock Preparation. To determine the amount of solvent to be used to give the desired final concentration, the formula “weight obtained in mg/final concentration in mg/ml” will be used. It will give the amount of solvent in ml needed to be added to give the desired concentration. For example, if 2.5 mg/ml is the desired concentration and the weight of compound is 13.7 mg, then the amount of solvent to be added is […]. Methanol is used as the solvent to dissolve the test compounds. Further dilution of stock is done in sterile, deionized water. Drug stocks are kept frozen at −70° C., protected from light.
(§3) Susceptibility Testing. MICs are determined by the broth microdilution method in accordance with the NCCLS guidelines. In brief, organism suspensions are adjusted to a 0.5 McFarland standard to yield a final inoculum between 3×10^5 and 7×10^5 CFU/ml. Drug dilutions and inocula are made in sterile, cation adjusted Mueller-Hinton Broth (CAMHB) (Remel) for all but S. pneumoniae [CAMHB with 2-5% lysed horse blood (Remel)] and H. influenzae [Haemophilus Test Medium (Remel)]. An inoculum volume of 100 μl is added to wells containing 100 μl of broth with 2-fold serial dilutions of drug. All inoculated microdilution trays are incubated in ambient air at 35° C. for 18-24 hours, except for S. pneumoniae, and H. influenzae (both at 5-10% CO2).
(§4) Following appropriate incubation, the MIC is determined and the MIC is defined as the lowest concentration of the drug that prevented visible growth.
as §1, with “8” for “4”
(§5) Following appropriate incubation, the MIC is determined and the MIC is defined as the lowest concentration of the drug that prevented visible growth. […] Antibacterial activity of representative compounds of the invention were compared against telitromycin.

[2] = tested on: Enterococcus faecalis Enfa_29212; assay type: cell-based; details: Table 7, Strain ID D (Table 6): E. faecalis Enfa_29212; in µg/mL (unit assumed)
Description: as §1, §2, §3, §4
as §1, with “8” for “4”
as §5

[3] = tested on: Haemophilus influenzae Hain_49247; assay type: cell-based; details: Table 7, Strain ID M (Table 6): H. influenzae Hain_49247; unit assumed
Description: as §1, §2, §3, §4
as §1, with “8” for “4”
as §5

[4] = tested on: Staphylococcus epidermidis Step_14990; assay type: cell-based; details: Table 7, Strain ID B (Table 6): S. epidermidis Step_14990; in µg/mL (unit assumed)
Description: as §1, §2, §3, §4
as §1, with “8” for “4”
as §5

[5] = tested on: Staphylococcus epidermidis Step_f50654; assay type: cell-based; details: Table 7, Strain ID C (Table 6): S. epidermidis Step_f50654; in µg/mL (unit assumed)
Description: as §1, §2, §3, §4
as §1, with “8” for “4”
as §5

[6] = tested on: Staphylococcus aureus Stau_29213; assay type: cell-based; details: Table 7, Strain ID A (Table 6): S. aureus Stau_29213; in µg/mL (unit assumed)
Description: as §1, §2, §3, §4
as §1, with “8” for “4”
as §5

[7] = tested on: Streptococcus pneumoniae Stpn_Mef S 3427; assay type: cell-based; details: Table 7, Strain ID L (Table 6): S. pneumoniae Stpn_Mef S 3427
Description: as §1, §2, §3, §4
as §1, with “8” for “4”
as §5

[8] = tested on: Streptococcus pneumoniae Stpn_Erm S 4297; assay type: cell-based; details: Table 7, Strain ID J (Table 6): S. pneumoniae Stpn_Erm S 4297
Description: as §1, §2, §3, §4
as §1, with “8” for “4”
as §5

[9] = tested on: Streptococcus pneumoniae Stpn_280-962; assay type: cell-based; details: Table 7, Strain ID H (Table 6): S. pneumoniae Stpn_280-962
Procedure, shortened: (§6)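 Broth microdilution per NCCLS in cation-adjusted Mueller-Hinton broth, with 2-5% lysed horse blood added for S. pneumoniae. Inoculum 3×10^5–7×10^5 CFU/ml, 2-fold drug dilutions, 18-24 h at 35° C; S. pneumoniae under 5-10% CO2, others ambient air. MIC = lowest concentration preventing visible growth.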

[10] = tested on: S. pneumoniae Stpn_Erm 6849; assay type: cell-based, Streptococcus pneumoniae; details: Table 7, Strain ID I (Table 6): S. pneumoniae Stpn_Erm 6849; unit assumed
Description: as §1, §2, §3, §4

[11] = tested on: Streptococcus pneumoniae Stpn_49619; assay type: cell-based; details: Table 7, Strain ID F (Table 6): S. pneumoniae Stpn_49619
Procedure, shortened: as §6

[12] = tested on: Streptococcus pneumoniae Stpn_297-749; assay type: cell-based; details: Table 7, Strain ID G (Table 6): S. pneumoniae Stpn_297-749
Procedure, shortened: as §6

[13] = tested on: Streptococcus pyogenes Stpy_8668; assay type: cell-based; details: Table 7, Strain ID E (Table 6): S. pyogenes Stpy_8668
Procedure, shortened: as §6

SMILES: CCC1OC(=O)C(C)C(=O)C(C)C(OC2OC(C)CC(N(C)C)C2O)C(C)(OC)CC(C)C(=O)C(C)C2C1OC(=O)N2CCCCc1ccnc2c(C(F)(F)F)cccc12 (stereo not drawn) [Compound 20q]
- MIC [1]: 0.4
- MIC [2]: 0.1
- MIC [3]: 12.5 µg/mL (≈ 14.7 µM)
- MIC [4]: 0.2
- MIC [5]: 0.4
- MIC [6]: 0.4
- MIC ([7]; in µg/mL (unit assumed)): 0.1
- MIC ([8]; unit assumed): 0.2 µg/mL (≈ 0.235 µM)
- MIC [9]: =0.05
- MIC [10]: 1.56 µg/mL (≈ 1.84 µM)
- MIC [11]: =0.05
- MIC [12]: =0.05
- MIC [13]: =0.05

SMILES: CCC1OC(=O)C(C)C(=O)C(C)C(OC2OC(C)CC(N(C)C)C2O)C(C)(OC)CC(C)C(=O)C(C)C2C1OC(=O)N2CCCOc1ccc(-c2cccnc2)cc1 (stereo not drawn) [Compound 20r]
- MIC [1]: 1.56
- MIC [2]: 1.56
- MIC [3]: 50 µg/mL (≈ 61.7 µM)
- MIC [4]: 3.13
- MIC [5]: 1.56
- MIC [6]: 3.13
- MIC ([7]; in µg/mL (unit assumed)): 0.1
- MIC ([8]; unit assumed): 25 µg/mL (≈ 30.9 µM)
- MIC ([9]; unit assumed): 0.1 µg/mL (≈ 0.123 µM)
- MIC [10]: 25 µg/mL (≈ 30.9 µM)
- MIC ([11]; unit assumed): 0.1 µg/mL (≈ 0.123 µM)
- MIC ([12]; unit assumed): 0.1 µg/mL (≈ 0.123 µM)
- MIC ([13]; unit assumed): 0.4 µg/mL (≈ 0.494 µM)

SMILES: CCC1OC(=O)C(C)C(=O)C(C)C(OC2OC(C)CC(N(C)C)C2O)C(C)(OC)CC(C)C(=O)C(C)C2C1OC(=O)N2CCCOc1cccc(-c2cccnc2)c1 (stereo not drawn) [Compound 20s]
- MIC [1]: 0.78
- MIC [2]: 0.2
- MIC [3]: 3.13 µg/mL (≈ 3.86 µM)
- MIC [4]: 0.78
- MIC [5]: 0.4
- MIC [6]: 0.78
- MIC [7]: =0.05
- MIC ([8]; unit assumed): 0.2 µg/mL (≈ 0.247 µM)
- MIC [9]: =0.05
- MIC [10]: 12.5 µg/mL (≈ 15.4 µM)
- MIC [11]: =0.05
- MIC [12]: =0.05
- MIC [13]: =0.05

SMILES: CCC1OC(=O)C(C)C(=O)C(C)C(OC2OC(C)CC(N(C)C)C2O)C(C)(OC)CC(C)C(=O)C(C)C2C1OC(=O)N2CCCCc1ncc(-c2ccccc2)s1 (stereo not drawn) [Compound 20t]
- MIC [1]: 1.56
- MIC [2]: 0.4
- MIC [3]: 12.5 µg/mL (≈ 15.4 µM)
- MIC [4]: 0.78
- MIC [5]: 0.4
- MIC [6]: 0.78
- MIC ([7]; in µg/mL (unit assumed)): 0.1
- MIC ([8]; unit assumed): 1.56 µg/mL (≈ 1.92 µM)
- MIC [9]: =0.05
- MIC [10]: 25 µg/mL (≈ 30.7 µM)
- MIC [11]: =0.05
- MIC [12]: =0.05
- MIC ([13]; unit assumed): 0.2 µg/mL (≈ 0.246 µM)

SMILES: CCC1OC(=O)C(C)C(=O)C(C)C(OC2OC(C)CC(N(C)C)C2O)C(C)(OC)CC(C)C(=O)C(C)C2C1OC(=O)N2CCCCc1ncc(-c2ccc(F)cc2F)s1 (stereo not drawn) [Compound 20u]
- MIC [1]: 1.56
- MIC [2]: 0.4
- MIC [3]: 25 µg/mL (≈ 29.4 µM)
- MIC [4]: 0.78
- MIC [5]: 0.4
- MIC [6]: 0.78
- MIC ([7]; in µg/mL (unit assumed)): 0.2
- MIC ([8]; unit assumed): 12.5 µg/mL (≈ 14.7 µM)
- MIC ([9]; unit assumed): 0.1 µg/mL (≈ 0.118 µM)
- MIC [10]: 25 µg/mL (≈ 29.4 µM)
- MIC ([11]; unit assumed): 0.1 µg/mL (≈ 0.118 µM)
- MIC ([12]; unit assumed): 0.1 µg/mL (≈ 0.118 µM)
- MIC ([13]; unit assumed): 0.4 µg/mL (≈ 0.471 µM)

SMILES: CCC1OC(=O)C(C)C(=O)C(C)C(OC2OC(C)CC(N(C)C)C2O)C(C)(OC)CC(C)C(=O)C(C)C2C1OC(=O)N2CCCCc1ncc(-c2cccc(N)c2)s1 (stereo not drawn) [Compound 20v]
- MIC [1]: 0.78
- MIC [2]: 0.2
- MIC [3]: 6.25 µg/mL (≈ 7.54 µM)
- MIC [4]: 0.4
- MIC [5]: 0.2
- MIC [6]: 0.4
- MIC [7]: =0.05
- MIC ([8]; unit assumed): 0.4 µg/mL (≈ 0.482 µM)
- MIC [9]: =0.05
- MIC [10]: 50 µg/mL (≈ 60.3 µM)
- MIC [11]: =0.05
- MIC [12]: =0.05
- MIC [13]: =0.05

SMILES: CCC1OC(=O)C(C)C(=O)C(C)C(OC2OC(C)CC(N(C)C)C2O)C(C)(OC)CC(C)C(=O)C(C)C2C1OC(=O)N2OCCOc1ccccc1 (stereo not drawn) [Compound 20w]
- MIC [1]: 0.4
- MIC [2]: 0.2
- MIC [3]: 50 µg/mL (≈ 68 µM)
- MIC [4]: 1.56
- MIC [5]: 3.13
- MIC [6]: 3.13
- MIC ([7]; in µg/mL (unit assumed)): 0.1
- MIC ([8]; unit assumed): 3.13 µg/mL (≈ 4.26 µM)
- MIC [9]: =0.05
- MIC [10]: 12.5 µg/mL (≈ 17 µM)
- MIC [11]: =0.05
- MIC [12]: =0.05
- MIC [13]: =0.05

SMILES: CC[C@H]1OC(=O)[C@H](C)C(=O)[C@H](C)[C@@H](OC2O[C@H](C)C[C@H](N(C)C)[C@H]2O)[C@@](C)(OC)C[C@@H](C)C(=O)[C@H](C)[C@H]2N(CCCC(C)(C)n3cnc(-c4cccnc4)c3)C(=O)O[C@]12CC (stereo partly drawn) [Example 31, (3aS,4R,7R,9R,10R,11S,13R,15R,15aR)-3a,4-diethyl-11-methoxy-7,9,11,13,15-pentamethyl-1-[4-methyl-4-(4-pyridin-3-yl-1H-imidazol-1-yl)pentyl]-2,6,8,14-tetraoxotetradecahydro-2H-oxacyclotetradecino[4,3-d][1,3]oxazol-10-yl-3,4,6-trideoxy-3-(dimethylamino)-D-xylo-hexopyranoside]
- MIC [1]: 0.78
- MIC [2]: 0.2
- MIC [3]: 6.25 µg/mL (≈ 7.32 µM)
- MIC [4]: 0.4
- MIC [5]: 0.4
- MIC [6]: 0.2
- MIC ([7]; in µg/mL (unit assumed)): 0.2
- MIC ([8]; unit assumed): 0.2 µg/mL (≈ 0.234 µM)
- MIC [9]: =0.05
- MIC [10]: 0.4 µg/mL (≈ 0.468 µM)
- MIC [11]: =0.05
- MIC [12]: =0.05
- MIC [13]: =0.05

SMILES: CC[C@H]1OC(=O)[C@@](C)(F)C(=O)[C@H](C)[C@@H](OC2O[C@H](C)C[C@H](N(C)C)[C@H]2O)[C@@](C)(OC)C[C@@H](C)C(=O)[C@H](C)[C@H]2N(CCCC(C)(C)n3cnc4ncccc43)C(=O)O[C@]12CC (stereo partly drawn) [Example 39, (3aS,4R,7S,9R,10R,11S,13R,15R,15aR)-3a,4-diethyl-7-fluoro-1-[4-(1H-imidazo[4,5-b]pyridin-1-yl)-4-methylpentyl]-11-methoxy-7,9,11,13,15-pentamethyl-2,6,8,14-tetraoxotetradecahydro-2H-oxacyclotetradecino[4,3-d][1,3]oxazol-10-yl-3,4,6-trideoxy-3-(dimethylamino)-D-xylo-hexopyranoside]
- MIC [1]: 0.78
- MIC [2]: 0.1
- MIC [3]: 3.13 µg/mL (≈ 3.7 µM)
- MIC [4]: 0.1
- MIC [5]: 0.4
- MIC [6]: 0.2
- MIC ([7]; in µg/mL (unit assumed)): 0.2
- MIC [8]: =0.05
- MIC [9]: =0.05
- MIC [10]: 0.1 µg/mL (≈ 0.118 µM)
- MIC [11]: =0.05
- MIC [12]: =0.05
- MIC [13]: =0.05
